Data from patent US20260027099A1, “OPHTHALMIC COMPOSITIONS COMPRISING BILASTINE, A BETA-CYCLODEXTRIN AND AT LEAST ONE GELLING AGENT” (FAES FARMA, S.A., priority 2018, published 2026).
Read-outs that look alike come from different tables or passages of the source.

Key:
[1] = tested on: histamine-induced conjunctival vascular permeability; settings: topical drug administered 2 to 8 hours before subconjunctival histamine challenge; Evans blue dye i.v.; cited from earlier work
[2] = Ocular in vivo biodistribution, bilastine tissue concentration by LC-MS/MS; set-up: species or system Dutch Belted rabbits; settings: Dutch Belted, topical, 24 hours post-administration, rabbit, 30 μL of 0.6% w/v formulation in each eye, single occasion
Experimental: The aqueous ophthalmic formulations of bilastine were prepared at a bilastine concentration of 0.6% w/v. The excipients were as indicated above in Table 1, i.e., also comprised HPB 90 mg/mL, methylcellulose 0.1 mg/mL, sodium hyaluronate 1 mg/mL and glycerin 16.1 mg/mL.
42, 4-5 month-old Dutch Belted rabbits were selected as test subjects. The weight of the animals at treatment start was from 1.6 to 2.1 kg.
Animals received 30 μL of the ophthalmic formulation in each eye on a single occasion. The ophthalmic formulation was placed directly on both eyes of each animal by means of an automatic pipette. A new pipette tip was used for each eye.
The eyes of the test animals were not washed after instillation. Animals were weighed before administration and observed after administration to record any possible clinical sign.
Two to three animals were sacrificed at each time point (0.5, 1, 2, 4, 6, 8, 12 and 24 hours) and the following tissues from both eyes were collected: Aqueous humor, vitreous humor, cornea, conjunctiva, iris/ciliary body, crystalline lens and retina/choroid. Directly after sampling, all solid matrices were weighed (4 decimal precision) to determine the amount of each tissue collected.
Bilastine concentration was determined by LC-MS/MS.
Bilastine analyses were performed according to analytical methods: • PKH/MOA/1022 for rabbit plasma, • PKH/MOA/1042 for rabbit aqueous humor, • PKH/MOA/1043 for rabbit vitreous humor, • PKH/MOA/1028 for rabbit cornea homogenate, • PKH/MOA/1041 for rabbit iris/ciliary body homogenate, • PKH/MOA/1036 for rabbit conjunctiva homogenate, • PKH/MOA/1032 for rabbit crystalline lens homogenate, • PKH/MOA/1029 for rabbit retina/choroid homogenate, which were previously developed and validated at Eurofins|ADME BIOANALYSES according to the Guidance for Industry—Bioanalytical Method Validation—FDA May 2018 and EMA Guideline—EMEA/CHMP/EWP/192217/2009—21 Jul. 2011, in the studies 18-014A to 18-014H.
The analytical methods involved protein precipitation for plasma and involved dilution for other matrices followed by LC-MS/MS analysis using F21201RR (Bilastine-d6) as internal standard.

What does the source list for CCOCCn1c(C2CCN(CCc3ccc(C(C)(C)C(=O)O)cc3)CC2)nc2ccccc21 [bilastine, 2-[4-(2-{4-[1-(2-Ethoxyethyl)-1H-benzimidazol-2-yl]-1-piperidinyl}ethyl)phenyl]-2-methylpropanoic acid]?
ED50 (in vivo anti-histaminic activity) [1]: 50% efficacy was not achieved; concentration at 24 h ([2]; conjunctiva, read-out: bilastine concentration in conjunctiva (mean value)): 388 ng/g; concentration at 24 h ([2]; cornea, read-out: bilastine concentration in cornea (mean value)): 28.7 ng/g; concentration at 24 h ([2]; crystalline lens, read-out: bilastine concentration in crystalline lens): 0.12 ng/g; concentration at 24 h ([2]; iris/ciliary body, read-out: bilastine concentration in iris/ciliary body): 12.4 ng/g; concentration at 24 h ([2]; retina/choroid, read-out: bilastine concentration in retina/choroid): 1.91 ng/g
